Source: patent US20260256792A1, “TREATMENT OF CHRONIC SPONTANEOUS URTICARIA BY ADMINISTERING (R)-2-[3-[4-AMINO-3-(2-FLUORO-4-PHENOXY-PHENYL)PYRAZOLO[3,4-D]PYRIMIDIN-1-YL]PIPERIDINE-1-CARBONYL]-4-METHYL-4-[4-(OXETAN-3-YL)PIPERAZIN-1-YL]PENT-2-ENENITRILE” (priority 2023, published 2026)

Tested on: moderate-to-severe chronic spontaneous urticaria (CSU)
Test: Phase 2 CSU study: itch severity score over 7 days (ISS7)
Type: in vivo, human
Settings: 400 mg BID; for Change from Baseline in ISS7 at Week 12, LS Mean / Change from Baseline in ISS7 at Week 12, LS Mean Diff vs. placebo / Change from Baseline in ISS7 at Week 12, Mean: Omalizumab-naïve population
Source text: The study comprises a 12 week, randomized, double-blind, placebo-controlled, multi-center, dose-ranging efficacy and safety phase, followed by a 40 week open label extension (OLE) phase (see FIG. 1). The study consists of three phases and an optional OLE phase. […] Clinically, CSU is characterized by the spontaneous and recurrent appearance of pruritic hives. The proposed primary endpoints were the UAS7 at Week 12 in EU and EU reference countries and the ISS7 in the US. Regardless of where a participant was from, all assessments were the same. The UAS7 score is a composite score containing both the HSS7 and the ISS7. This allowed a global assessment of the two key components of urticaria: hives and itch. […] The UAS is a validated PRO measure. […] The daily UAS scores range from 0 to 6 point/day. […] Patients were to complete the UAS using the e-diary. […] The following secondary endpoints were to be analyzed using the same approach as for the primary endpoint: • Change from baseline in UAS7 at Week 4 • Change from baseline in UAS7 at Week 12 (for US and US reference countries) • Change from baseline in ISS7 at Week 12 (except US and US reference countries) • Change from baseline in HSS7 at Week 12

[1] = Baseline Eosinophils (10^9/L) <0.150
[2] = Baseline Eosinophils (10^9/L) <0.165 (Median)
[3] = Baseline Eosinophils (10^9/L) <0.3
[4] = Baseline Eosinophils (10^9/L) ≥0.150
[5] = Baseline Eosinophils (10^9/L) ≥0.165 (Median)
[6] = Baseline Eosinophils (10^9/L) ≥0.3
[7] = Baseline H1-antihistamines dose 1-fold
[8] = Baseline H1-antihistamines dose 2 to 4-fold standard dose
[9] = Baseline Total IgE (IU/mL) <100
[10] = Baseline Total IgE (IU/mL) <300
[11] = Baseline Total IgE (IU/mL) ≥100
[12] = Baseline Total IgE (IU/mL) ≥300
[13] = Duration of disease (years) 2-10
[14] = Duration of disease (years) >10

## CC(C)(C=C(C#N)C(=O)N1CCC[C@@H](n2nc(-c3ccc(Oc4ccccc4)cc3F)c3c(N)ncnc32)C1)N1CCN(C2COC2)CC1 [rilzabrutinib, (R)-2-[3-[4-amino-3-(2-fluoro-4-phenoxy-phenyl)pyrazolo[3,4-d]pyrimidin-1-yl]piperidine-1-carbonyl]-4-methyl-4-[4-(oxetan-3-yl)piperazin-1-yl]pent-2-enenitrile]
Age group (years) <44 (Median)
  Change from Baseline in ISS7 at Week 12, LS Mean: −7.05
  Change from Baseline in ISS7 at Week 12, LS Mean Diff vs. placebo: −2.58
  Change from Baseline in ISS7 at Week 12, Mean: −5.97
Age group (years) <65
  Change from Baseline in ISS7 at Week 12, LS Mean: −7.37
  Change from Baseline in ISS7 at Week 12, LS Mean Diff vs. placebo: −1.71
  Change from Baseline in ISS7 at Week 12, Mean: −7.17
Age group (years) ≥44 (Median)
  Change from Baseline in ISS7 at Week 12, LS Mean: −8.10
  Change from Baseline in ISS7 at Week 12, LS Mean Diff vs. placebo: −1.50
  Change from Baseline in ISS7 at Week 12, Mean: −8.62
Age group (years) ≥65
  Change from Baseline in ISS7 at Week 12, Mean: −13.00
Baseline BHRA BHRA+
  Change from Baseline in ISS7 at Week 12, LS Mean: −8.42
  Change from Baseline in ISS7 at Week 12, LS Mean Diff vs. placebo: −3.03
  Change from Baseline in ISS7 at Week 12, Mean: −9.57
Baseline BHRA BHRA−
  Change from Baseline in ISS7 at Week 12, LS Mean: −6.59
  Change from Baseline in ISS7 at Week 12, Mean: −6.75
Baseline BMI (kg/m^2) ≥30
  Change from Baseline in ISS7 at Week 12, LS Mean Diff vs. placebo: −0.57
[1]
  Change from Baseline in ISS7 at Week 12, LS Mean: −6.93
  Change from Baseline in ISS7 at Week 12, LS Mean Diff vs. placebo: −0.15
[2]
  Change from Baseline in ISS7 at Week 12, LS Mean: −7.37
  Change from Baseline in ISS7 at Week 12, LS Mean Diff vs. placebo: −0.86
  Change from Baseline in ISS7 at Week 12, Mean: −5.92
[3]
  Change from Baseline in ISS7 at Week 12, LS Mean: −7.78
  Change from Baseline in ISS7 at Week 12, LS Mean Diff vs. placebo: −2.31
  Change from Baseline in ISS7 at Week 12, Mean: −7.62
[4]
  Change from Baseline in ISS7 at Week 12, LS Mean: −7.91
  Change from Baseline in ISS7 at Week 12, LS Mean Diff vs. placebo: −3.92
[5]
  Change from Baseline in ISS7 at Week 12, LS Mean: −7.62
  Change from Baseline in ISS7 at Week 12, LS Mean Diff vs. placebo: −3.53
  Change from Baseline in ISS7 at Week 12, Mean: −8.88
[6]
  Change from Baseline in ISS7 at Week 12, LS Mean: −6.15
  Change from Baseline in ISS7 at Week 12, LS Mean Diff vs. placebo: −1.29
[7]
  Change from Baseline in ISS7 at Week 12, LS Mean: −8.44
  Change from Baseline in ISS7 at Week 12, LS Mean Diff vs. placebo: −1.60
  Change from Baseline in ISS7 at Week 12, Mean: −9.03
[8]
  Change from Baseline in ISS7 at Week 12, LS Mean: −6.73
  Change from Baseline in ISS7 at Week 12, LS Mean Diff vs. placebo: −3.25
  Change from Baseline in ISS7 at Week 12, Mean: −6.20
Baseline ISS7 score <13
  Change from Baseline in ISS7 at Week 12, LS Mean: −5.14
  Change from Baseline in ISS7 at Week 12, LS Mean Diff vs. placebo: −2.42
  Change from Baseline in ISS7 at Week 12, Mean: −5.28
Baseline ISS7 score ≥13
  Change from Baseline in ISS7 at Week 12, LS Mean: −7.87
  Change from Baseline in ISS7 at Week 12, LS Mean Diff vs. placebo: −2.14
  Change from Baseline in ISS7 at Week 12, Mean: −8.03
[9]
  Change from Baseline in ISS7 at Week 12, LS Mean: −8.29
  Change from Baseline in ISS7 at Week 12, LS Mean Diff vs. placebo: −4.06
  Change from Baseline in ISS7 at Week 12, Mean: −8.52
[10]
  Change from Baseline in ISS7 at Week 12, LS Mean: −7.94
  Change from Baseline in ISS7 at Week 12, LS Mean Diff vs. placebo: −3.43
  Change from Baseline in ISS7 at Week 12, Mean: −7.93
[11]
  Change from Baseline in ISS7 at Week 12, LS Mean: −6.91
  Change from Baseline in ISS7 at Week 12, LS Mean Diff vs. placebo: −0.88
  Change from Baseline in ISS7 at Week 12, Mean: −6.57
[12]
  Change from Baseline in ISS7 at Week 12, LS Mean: −7.17
  Change from Baseline in ISS7 at Week 12, LS Mean Diff vs. placebo: −0.62
  Change from Baseline in ISS7 at Week 12, Mean: −6.20
Baseline UAS7 score <28
  Change from Baseline in ISS7 at Week 12, LS Mean: −5.40
  Change from Baseline in ISS7 at Week 12, LS Mean Diff vs. placebo: −2.22
  Change from Baseline in ISS7 at Week 12, Mean: −6.29
Baseline UAS7 score ≥28
  Change from Baseline in ISS7 at Week 12, LS Mean: −8.64
  Change from Baseline in ISS7 at Week 12, LS Mean Diff vs. placebo: −2.04
  Change from Baseline in ISS7 at Week 12, Mean: −8.21
[13]
  Change from Baseline in ISS7 at Week 12, LS Mean: −6.89
  Change from Baseline in ISS7 at Week 12, LS Mean Diff vs. placebo: 0.14
  Change from Baseline in ISS7 at Week 12, Mean: −8.05
Duration of disease (years) <2
  Change from Baseline in ISS7 at Week 12, LS Mean: −8.54
  Change from Baseline in ISS7 at Week 12, LS Mean Diff vs. placebo: −4.89
  Change from Baseline in ISS7 at Week 12, Mean: −7.53
[14]
  Change from Baseline in ISS7 at Week 12, LS Mean: 5.36
  Change from Baseline in ISS7 at Week 12, LS Mean Diff vs. placebo: 9.04
  Change from Baseline in ISS7 at Week 12, Mean: 1.67
Ethnicity Hispanic
  Change from Baseline in ISS7 at Week 12, LS Mean: −5.19
  Change from Baseline in ISS7 at Week 12, LS Mean Diff vs. placebo: 1.82
  Change from Baseline in ISS7 at Week 12, Mean: −4.42
Ethnicity Non-Hispanic
  Change from Baseline in ISS7 at Week 12, LS Mean: −8.43
  Change from Baseline in ISS7 at Week 12, LS Mean Diff vs. placebo: −3.96
  Change from Baseline in ISS7 at Week 12, Mean: −8.59
Gender Female
  Change from Baseline in ISS7 at Week 12, Mean: −6.99
Gender Male
  Change from Baseline in ISS7 at Week 12, Mean: −8.17
History of angioedema No
  Change from Baseline in ISS7 at Week 12, LS Mean: −7.93
  Change from Baseline in ISS7 at Week 12, LS Mean Diff vs. placebo: −2.59
History of angioedema Yes
  Change from Baseline in ISS7 at Week 12, LS Mean: −6.26
  Change from Baseline in ISS7 at Week 12, LS Mean Diff vs. placebo: −1.01
  Change from Baseline in ISS7 at Week 12, Mean: −4.04
ITT population
  ISS7 at Week 12, Mean: 7.61
  ISS7 at Week 12, Median: 7.00
  ISS7 change from baseline at Week 12, Mean: −8.21
  ISS7 change from baseline at Week 12, Median: −8.00
ITT population, ANCOVA
  ISS7 change from baseline at Week 12, LS Mean: −8.06 points
  ISS7 change from baseline at Week 12, LS Mean Diff vs. placebo: −1.75
ITT population, following one week of treatment
  LS mean change in ISS7 from baseline (see Table 29): −5.23 points
Race All the Others
  Change from Baseline in ISS7 at Week 12, LS Mean: −6.99
